Data from patent publication US12569534B2, “Therapeutic nanoparticles by coacervate complexation and their use for treating bacteria” (priority 2018, dated 2026).

Assays:
P. aeruginosa [1] = assay: MIC/MBC broth microdilution, Example 2; format: cell-based, Pseudomonas aeruginosa; details: Example 2 CS NPs
Method: (§1) Reference bacterial stains were purchased from ATCC. Clinical isolates of carbapenem-resistant bacteria were obtained from National Health Research Institutes (NHRI) and Tri-Service General Hospital (TSGH). MIC is defined as the lowest concentration of antibiotics required to inhibit the growth of bacteria. MBC is defined as the lowest concentration of antibiotics required to eradicate microorganisms. The MICs of CS and the CS NPs were determined using a broth microdilution method. Bacterial suspensions were adjusted to a turbidity of McFarland 0.5±0.05 and cultured overnight with different concentrations of CS or CS NPs. A control group without antimicrobial treatment was prepared as a reference. Following overnight incubation, solution turbidity was determined by visual inspection. Culture wells with no observable turbidity were further sub-cultured for MBC evaluation. Solutions from the clear wells were deposited onto an agar plate and cultured overnight to determine the MBCs.
(§2) To evaluate the antibacterial efficacy of the CS NPs of this study, their MIC and MBC were assessed against 5 reference bacterial strains and 20 clinical isolates of carbapenem-resistant A. baumannii, E. coli, K. pneumoniae, and P. aeruginosa according to the procedures set forth in EXAMPLE 1. Reference bacterial stains were purchased from ATCC. Carbapenem-resistant clinical isolated were obtained from NHRI.

CS release by dialysis = format: physicochemical; details: 50 k MWCO membrane, 37° C., pH 7.4 and pH 5.0
Method: CS release from the CS NPs was studied using a dialysis tube with 50 k MWCO membrane (Pur-A-Lyzer™ Maxi Dialysis Kit, Sigma-Aldrich) in 0.15 M phosphate buffer (pH 7.4) and in 0.15 M acetate buffer solution (pH 5.0). […] Samples were each placed into a dialysis tube at 37° C. under gentle stirring. At predetermined time points, the samples were collected and analyzed for CS content using HPLC.

A. baumannii 17978 = assay: Murine model of A. baumannii pneumonia, survival; format: in vivo; details: C57BL/6 mice, 5 mg/kg i.v. twice a day
Method: Briefly, A. baumannii 17978 were grown in 30 mL LB broth under shaking at 37° C. to reach the mid-logarithmic phase. The bacteria were then pelleted by centrifugation at 4,000 g for 15 minutes. The bacteria pellet was resuspended in PBS and mixed with 5% mucin derived from porcine stomach (type 3; Sigma-Aldrich, Taiwan).
To induce A. baumannii pneumonia, 8-week-old C57BL/6 mice (National Laboratory Animal Center, Taiwan) were first anesthetized with 2% tribromoethanol (Avertin; 0.018 mL/g). 6.07×10^8 CFU of A. baumannii 17978 were then administered to the mice via intra-tracheal injection to induce pneumonia (FIG. 4A). At 2 hours post-inoculation, the mice were treated twice a day with PBS (as the control), CS, or CS NPs at 5 mg/kg via intravenous injections.
The efficacy between CS and the CS NPs was compared by survival analysis. The difference in survival among the groups was analyzed by a Log-rank test using GraphPad Prism. Treatment efficacy of CS and CS NPs was observed 36 hour post-infection as no mortality was recorded in either of the two drug treatment groups whereas 37.5% of the control group animals were deceased. […] The survival outcome supports retention of CS's antimicrobial activity following nanoparticle assembly.

A. baumannii [2] = assay: MIC/MBC broth microdilution, Example 1; format: cell-based, Acinetobacter baumannii; details: Example 1 CS NPs
Method: (§3) To evaluate antibacterial efficacy of the CS NPs, their minimum inhibitory concentration (MIC) and minimum bactericidal concentration (MBC) were assessed against 5 reference bacterial strains and 39 clinical isolates of carbapenem-resistant A. baumannii, P. aeruginosa, E. coli, and K. pneumoniae.
as §1

K. pneumoniae = assay: MIC/MBC broth microdilution, Example 2; format: cell-based, Klebsiella pneumoniae; details: Example 2 CS NPs
Method: as §1, §2

P. aeruginosa [3] = assay: MIC/MBC broth microdilution, Example 1; format: cell-based, Pseudomonas aeruginosa; details: Example 1 CS NPs
Method: as §3, §1

A. baumannii [4] = assay: MIC/MBC broth microdilution, Example 2; format: cell-based, Acinetobacter baumannii; details: Example 2 CS NPs
Method: as §1, §2

[5] = clinical carbapenem-resistant isolate P. aeruginosa NHRI 1
[6] = clinical carbapenem-resistant isolate P. aeruginosa NHRI 2
[7] = clinical carbapenem-resistant isolate P. aeruginosa NHRI 3
[8] = clinical carbapenem-resistant isolate P. aeruginosa NHRI 4
[9] = clinical carbapenem-resistant isolate P. aeruginosa NHRI 5
[10] = reference strain P. aeruginosa 27853
[11] = clinical carbapenem-resistant A. baumannii NHRI 1
[12] = clinical carbapenem-resistant A. baumannii NHRI 2
[13] = clinical carbapenem-resistant A. baumannii NHRI 3
[14] = clinical carbapenem-resistant A. baumannii NHRI 4
[15] = clinical carbapenem-resistant A. baumannii NHRI 5
[16] = reference strain A. baumannii 15151
[17] = reference strain A. baumannii 17978
[18] = reference strain A. baumannii 19606
[19] = clinical carbapenem-resistant isolate K. pneumoniae NHRI 1
[20] = clinical carbapenem-resistant isolate K. pneumoniae NHRI 2
[21] = clinical carbapenem-resistant isolate K. pneumoniae NHRI 3
[22] = clinical carbapenem-resistant isolate K. pneumoniae NHRI 4
[23] = clinical carbapenem-resistant isolate K. pneumoniae NHRI 5
[24] = clinical carbapenem-resistant P. aeruginosa NHRI 1
[25] = clinical carbapenem-resistant P. aeruginosa NHRI 2
[26] = clinical carbapenem-resistant P. aeruginosa NHRI 3
[27] = clinical carbapenem-resistant P. aeruginosa NHRI 4
[28] = clinical carbapenem-resistant P. aeruginosa NHRI 5
[29] = clinical carbapenem-resistant isolate A. baumannii NHRI 1
[30] = clinical carbapenem-resistant isolate A. baumannii NHRI 2
[31] = clinical carbapenem-resistant isolate A. baumannii NHRI 3
[32] = clinical carbapenem-resistant isolate A. baumannii NHRI 4
[33] = clinical carbapenem-resistant isolate A. baumannii NHRI 5

colistin [CS] gave an MBC (P. aeruginosa [1]; [5]) of 4 mg/L, an MIC (P. aeruginosa [1]; [5]) of 1 mg/L and an MBC (P. aeruginosa [1]; [6]) of 4 mg/L. The MIC (P. aeruginosa [1]; [6]) was 2 mg/L, the MBC (P. aeruginosa [1]; [7]) was 4 mg/L and the MIC (P. aeruginosa [1]; [7]) was 1 mg/L. For the same substance, the MBC (P. aeruginosa [1]; [8]) was 4 mg/L, the MIC (P. aeruginosa [1]; [8]) was 2 mg/L and the MBC (P. aeruginosa [1]; [9]) was 4 mg/L. For the same substance, the MIC (P. aeruginosa [1]; [9]) was 1 mg/L, the MBC (P. aeruginosa [1]; [10]) was 2 mg/L and the MIC (P. aeruginosa [1]; [10]) was 1 mg/L. For the same substance, the “release profile in dialysis” value (CS release by dialysis) was “rapidly dialyzed from the setup”, the mortality (A. baumannii 17978; 36 hour post-infection) was “no mortality” and the “surviving mice out of 8 assessed animals” value (A. baumannii 17978; 72 hours of observation) was 4. The MBC (A. baumannii [2]; [11]) was 2 mg/L, the MIC (A. baumannii [2]; [11]) was 1 mg/L and the MBC (A. baumannii [2]; [12]) was 2 mg/L. The MIC (A. baumannii [2]; [12]) was 1 mg/L, the MBC (A. baumannii [2]; [13]) was 1 mg/L and the MIC (A. baumannii [2]; [13]) was 1 mg/L. For the same substance, the MBC (A. baumannii [2]; [14]) was 2 mg/L, the MIC (A. baumannii [2]; [14]) was 1 mg/L and the MBC (A. baumannii [2]; [15]) was 1 mg/L. For the same substance, the MIC (A. baumannii [2]; [15]) was 1 mg/L, the MBC (A. baumannii [2]; [16]) was 1 mg/L and the MIC (A. baumannii [2]; [16]) was 1 mg/L. The MBC (A. baumannii [2]; [17]) was 1 mg/L, the MIC (A. baumannii [2]; [17]) was 1 mg/L and the MBC (A. baumannii [2]; [18]) was 1 mg/L. It also gave an MIC (A. baumannii [2]; [18]) of 1 mg/L, an MBC (K. pneumoniae; [19]) of 4 mg/L and an MIC (K. pneumoniae; [19]) of 1 mg/L. It also gave an MBC (K. pneumoniae; [20]) of 1 mg/L, an MIC (K. pneumoniae; [20]) of 1 mg/L and an MBC (K. pneumoniae; [21]) of 2 mg/L. The MIC (K. pneumoniae; [21]) was 1 mg/L, the MBC (K. pneumoniae; [22]) was 2 mg/L and the MIC (K. pneumoniae; [22]) was 2 mg/L. For the same substance, the MBC (K. pneumoniae; [23]) was 4 mg/L, the MIC (K. pneumoniae; [23]) was 1 mg/L and the MBC (P. aeruginosa [3]; [24]) was 2 mg/L. The MIC (P. aeruginosa [3]; [24]) was 2 mg/L, the MBC (P. aeruginosa [3]; [25]) was 4 mg/L and the MIC (P. aeruginosa [3]; [25]) was 2 mg/L. It also gave an MBC (P. aeruginosa [3]; [26]) of 8 mg/L, an MIC (P. aeruginosa [3]; [26]) of 2 mg/L and an MBC (P. aeruginosa [3]; [27]) of 8 mg/L. It also gave an MIC (P. aeruginosa [3]; [27]) of 4 mg/L, an MBC (P. aeruginosa [3]; [28]) of 4 mg/L and an MIC (P. aeruginosa [3]; [28]) of 2 mg/L. For the same substance, the MBC (P. aeruginosa [3]; [10]) was 1 mg/L, the MIC (P. aeruginosa [3]; [10]) was 1 mg/L and the MBC (A. baumannii [4]; [29]) was 2 mg/L. For the same substance, the MIC (A. baumannii [4]; [29]) was 1 mg/L, the MBC (A. baumannii [4]; [30]) was 2 mg/L and the MIC (A. baumannii [4]; [30]) was 2 mg/L. For the same substance, the MBC (A. baumannii [4]; [31]) was 2 mg/L, the MIC (A. baumannii [4]; [31]) was 1 mg/L and the MBC (A. baumannii [4]; [32]) was 4 mg/L. For the same substance, the MIC (A. baumannii [4]; [32]) was 1 mg/L, the MBC (A. baumannii [4]; [33]) was 2 mg/L and the MIC (A. baumannii [4]; [33]) was 1 mg/L. The MBC (A. baumannii [4]; [17]) was 2 mg/L, the MIC (A. baumannii [4]; [17]) was 2 mg/L and the MBC (A. baumannii [4]; [18]) was 4 mg/L. For the same substance, the MIC (A. baumannii [4]; [18]) was 2 mg/L.
